Data as given in patent US12611438B2, “Antiviral composition comprising a nucleolin-binding peptide” (ANYGEN CO., LTD., priority 2021, dated 2026).

What was measured:
in vivo = conditions: C57BL/6, mouse, serum, 2 mg/kg
Experimental: (§1) In order to determine whether or not the stability of the peptide is enhanced, the in vivo half-life of the peptide was analyzed. […] The absorbance was measured at a wavelength of 450 nm using a VersaMax ELISA plate reader (Molecular Devices) and pharmacokinetics were analyzed with the phoenix WinNonlin 8.1 (Pharsight Corporation, Mountain View, CA, USA) program.

[1] = 2 mg/kg, tail vein, C57BL/6 mice
Experimental: as §1

SARS-COV-2 = assay: microbe, parasite or virus in culture; conditions: Severe acute respiratory syndrome coronavirus 2, Vero C1008, 24 h

| Compound | Cmax (in vivo; intravenous) | Tmax (in vivo; intravenous) | half-life (in vivo; intravenous) | AUC (in vivo; iv) | in vivo stability compared with monomeric or dimeric peptides [1] | IC50 (SARS-COV-2) |
| --- | --- | --- | --- | --- | --- | --- |
| CSCC[C@H](NC(=O)[C@H](C)NC(=O)CNC(=O)[C@H](Cc1c[nH]cn1)NC(=O)[C@@H](N)CCCNC(=N)N)C(=O)N[C@H](C(=O)N[C@@H](Cc1ccc(O)cc1)C(=O)N[C@@H](CC(C)C)C(=O)N[C@@H](CCCCN)C(=O)NCCOCCOCCOCCOCCOCCOCCC(=O)NCCCC[C@H](NC(=O)CCOCCOCCOCCOCCOCCOCCNC(=O)[C@H](CCCCN)NC(=O)[C@H](CC(C)C)NC(=O)[C@H](Cc1ccc(O)cc1)NC(=O)[C@@H](NC(=O)[C@H](CCSC)NC(=O)[C@H](C)NC(=O)CNC(=O)[C@H](Cc1c[nH]cn1)NC(=O)[C@@H](N)CCCNC(=N)N)C(C)C)C(=O)NCCCC[C@H](NC(=O)[C@H](CCCCNC(=O)CCOCCOCCOCCOCCOCCOCCNC(=O)[C@H](CCCCN)NC(=O)[C@H](CC(C)C)NC(=O)[C@H](Cc1ccc(O)cc1)NC(=O)[C@@H](NC(=O)[C@H](CCSC)NC(=O)[C@H](C)NC(=O)CNC(=O)[C@H](Cc1c[nH]cn1)NC(=O)[C@@H](N)CCCNC(=N)N)C(C)C)NC(=O)CCOCCOCCOCCOCCOCCOCCNC(=O)[C@H](CCCCN)NC(=O)[C@H](CC(C)C)NC(=O)[C@H](Cc1ccc(O)cc1)NC(=O)[C@@H](NC(=O)[C@H](CCSC)NC(=O)[C@H](C)NC(=O)CNC(=O)[C@H](Cc1c[nH]cn1)NC(=O)[C@@H](N)CCCNC(=N)N)C(C)C)C(=O)N[C@@H](CS)C(=O)O)C(C)C [AGM-330t] | 1880 ± 670 ng/mL | 0.167 h | 9.43 ± 1.21 h | 21400 ± 810 ng·h/mL | higher stability | – |
| CCN(CC)CCCC(C)Nc1ccnc2cc(Cl)ccc12 (stereo not drawn) [Chloroquine, chloroquine] | – | – | – | – | – | 8.25 µM |
